From ChEMBL document CHEMBL1649145, “Interactions between triazoles and amphotericin B in treatment of disseminated murine infection by Fusarium oxysporum” (2009)
In brackets after ≈: the same amount, converted by molar mass. Activity calls are given as the source filed them. No cut-off for these calls is given here.

How the values were obtained:
Fusarium oxysporum [1] = test: Antimicrobial activity against Fusarium oxysporum FMR 5205 by microdilution method in presence of posaconazole; assay type: functional
Fusarium oxysporum [2] = test: Antimicrobial activity against Fusarium oxysporum FMR 10281 by microdilution method; assay type: functional
Fusarium oxysporum [3] = test: Antimicrobial activity against Fusarium oxysporum FMR 5205 by microdilution method; assay type: functional
Fusarium oxysporum [4] = test: Antimicrobial activity against Fusarium oxysporum FMR 10281 by microdilution method in presence of posaconazole; assay type: functional
Fusarium oxysporum [5] = test: Antimicrobial activity against Fusarium oxysporum FMR 5205 by microdilution method in presence of voriconazole; assay type: functional
Fusarium oxysporum [6] = test: Antimicrobial activity against 1X 10^7 CFU Fusarium oxysporum FMR 10281 infected in immunosuppressed-OF1 mouse assessed as prolonged survival of mouse at 3 mg/kg, ip administered 1 day post infection measured 20 days post […] infection; assay type: functional, organism-based; design: dose 3 mg/kg
Fusarium oxysporum [7] = test: Antimicrobial activity against Fusarium oxysporum FMR 10281 by microdilution method in presence of voriconazole; assay type: functional
Fusarium oxysporum [8] = test: Antimicrobial activity against 1X 10^7 CFU Fusarium oxysporum FMR 10281 infected in immunosuppressed-OF1 mouse assessed as reduction in spleen fungal burden at 100 mg/kg, po administered 1 day post infection measured on day 6 post dosing; assay type: functional, organism-based; design: dose 100 mg/kg
Fusarium oxysporum [9] = test: Antimicrobial activity against 1X 10^7 CFU Fusarium oxysporum FMR 5205 infected in immunosuppressed-OF1 mouse assessed as reduction in spleen fungal burden at 100 mg/kg, po administered 1 day post infection measured on day 6 post dosing; assay type: functional, organism-based; design: dose 100 mg/kg
Fusarium oxysporum [10] = test: Antimicrobial activity against 1X 10^7 CFU Fusarium oxysporum FMR 10281 infected in immunosuppressed-OF1 mouse assessed as prolonged survival of mouse at 100 mg/kg, po administered 1 day post infection measured 20 days post […] infection; assay type: functional, organism-based; design: dose 100 mg/kg
Fusarium oxysporum [11] = test: Antimicrobial activity against 1X 10^7 CFU Fusarium oxysporum FMR 5205 infected in immunosuppressed-OF1 mouse assessed as reduction in kidney fungal burden at 100 mg/kg, po administered 1 day post infection measured on day 6 post dosing; assay type: functional, organism-based; design: dose 100 mg/kg
Fusarium oxysporum [12] = test: Antimicrobial activity against 1X 10^7 CFU Fusarium oxysporum FMR 5205 infected in immunosuppressed-OF1 mouse assessed as reduction in spleen fungal burden at 3 mg/kg, ip administered 1 day post infection measured on day 6 post dosing; assay type: functional, organism-based; design: dose 3 mg/kg
Fusarium oxysporum [13] = test: Antimicrobial activity against 1X 10^7 CFU Fusarium oxysporum FMR 10281 infected in immunosuppressed-OF1 mouse assessed as reduction in spleen fungal burden at 3 mg/kg, ip administered 1 day post infection measured on day 6 post dosing; assay type: functional, organism-based; design: dose 3 mg/kg
Fusarium oxysporum [14] = test: Antimicrobial activity against 1X 10^7 CFU Fusarium oxysporum FMR 10281 infected in immunosuppressed-OF1 mouse assessed as prolonged survival of mouse at 60 mg/kg, po administered 1 day post infection measured 20 days post […] infection; assay type: functional, organism-based; design: dose 60 mg/kg
Fusarium oxysporum [15] = test: Antimicrobial activity against 1X 10^7 CFU Fusarium oxysporum FMR 5205 infected in immunosuppressed-OF1 mouse assessed as reduction in kidney fungal burden at 60 mg/kg, po administered 1 day post infection measured on day 6 post dosing; assay type: functional, organism-based; design: dose 60 mg/kg

| Compound | MIC (Fusarium oxysporum [1]) | MIC (Fusarium oxysporum [2]) | MIC (Fusarium oxysporum [3]) | MIC (Fusarium oxysporum [4]) | MIC (Fusarium oxysporum [5]) | Activity (Fusarium oxysporum [6]) | MIC (Fusarium oxysporum [7]) | Activity (Fusarium oxysporum [8]) | Activity (Fusarium oxysporum [9]) | Activity (Fusarium oxysporum [10]) | Activity (Fusarium oxysporum [11]) | Activity (Fusarium oxysporum [12]) | Activity (Fusarium oxysporum [13]) | Activity (Fusarium oxysporum [14]) | Activity (Fusarium oxysporum [15]) |
| --- | --- | --- | --- | --- | --- | --- | --- | --- | --- | --- | --- | --- | --- | --- | --- |
| C[C@@H]1[C@H](O)[C@@H](C)/C=C/C=C/C=C/C=C/C=C/C=C/C=C/[C@H](O[C@@H]2O[C@H](C)[C@@H](O)[C@H](N)[C@@H]2O)C[C@@H]2O[C@](O)(C[C@@H](O)C[C@@H](O)[C@H](O)CC[C@@H](O)C[C@@H](O)CC(=O)O[C@H]1C)C[C@H](O)[C@H]2C(=O)O [AMPHOTERICIN B] | 2 µg/mL | 4 µg/mL (≈ 4.33 µM) | 2 µg/mL (≈ 2.16 µM) | 4 µg/mL | 2 µg/mL | inactive | 4 µg/mL |  |  |  |  |  |  |  |  |
| CC[C@@H]([C@H](C)O)n1ncn(-c2ccc(N3CCN(c4ccc(OC[C@@H]5CO[C@@](Cn6cncn6)(c6ccc(F)cc6F)C5)cc4)CC3)cc2)c1=O [POSACONAZOLE] |  | > 16 µg/mL | 2 µg/mL (≈ 2.85 µM) |  |  |  |  | Active | Active | Active | Active |  |  |  |  |
| C[C@@H](c1ncncc1F)[C@](O)(Cn1cncn1)c1ccc(F)cc1F [VORICONAZOLE] |  | 16 µg/mL (≈ 45.8 µM) | 4 µg/mL (≈ 11.5 µM) |  |  |  |  |  |  |  |  | Active | Active | inactive | Active |
